Several values for one entry are separate records, joined by “and”; a condition that tells them apart may be missing. Identical values can stand only once.
Tested on: HT29 xenograft, nude mice, s.c., tumor weight T/C%
Assay: NCI In Vivo Anticancer Drug Screen. Data for tumor model HT29;CX-1 Human Adenocarcinoma (MER+) (subcutaneous) in NU/NU Swiss (nude) mice
Details: endpoint: optimum tumor weight change, higher = larger tumour
Experimental: The antitumor activity of compounds was measured in mice bearing transplantable tumors. Survival or tumor size were measured and the results are expressed as the measurement made in the treated group (T) divided by the measurement made in the vehicle treated control group (C). The tumor model used in this assay is HT29;CX-1 Human Adenocarcinoma (MER+) (subcutaneous) in NU/NU Swiss (nude) mice

[1] = dose: 25.0 mg/kg/injection, schedule: Q04DX003 (ip), vehicle: Klucel (hydroxypropylcellulose) (HPC)
[2] = dose: 6.25 mg/kg/injection, schedule: Q04DX003 (ip), vehicle: saline
[3] = dose: 50.0 mg/kg/injection, schedule: Q04DX003 (ip), vehicle: saline
[4] = dose: 100.0 mg/kg/injection, schedule: Q04DX003 (ip), vehicle: saline
[5] = dose: 200.0 mg/kg/injection, schedule: Q04DX003 (ip), vehicle: saline
[6] = dose: 400.0 mg/kg/injection, schedule: Q04DX003 (ip), vehicle: saline
[7] = dose: 100.0 mg/kg/injection, schedule: Q04DX003 (ip), vehicle: Klucel (hydroxypropylcellulose) (HPC)
[8] = dose: 200.0 mg/kg/injection, schedule: Q04DX003 (ip), vehicle: Klucel (hydroxypropylcellulose) (HPC)
[9] = dose: 25.0 mg/kg/injection, schedule: Q04DX003 (ip), vehicle: saline
[10] = dose: 100.0 mg/kg/injection, schedule: Q04DX003 (ip), vehicle: suspension in saline
[11] = dose: 200.0 mg/kg/injection, schedule: Q04DX003 (ip), vehicle: suspension in saline
[12] = dose: 400.0 mg/kg/injection, schedule: Q04DX003 (ip), vehicle: suspension in saline
[13] = dose: 50.0 mg/kg/injection, schedule: Q04DX003 (ip), vehicle: Klucel (hydroxypropylcellulose) (HPC)
[14] = dose: 800.0 mg/kg/injection, schedule: Q04DX003 (ip), vehicle: suspension in saline
[15] = dose: 12.5 mg/kg/injection, schedule: Q04DX003 (ip), vehicle: saline

Compound: CC(=O)OCC(=O)[C@@]12OC(C)(C)O[C@@H]1C[C@H]1[C@@H]3CC(C=O)=C4C=C(OCCCl)CC[C@]4(C)[C@@]3(F)[C@@H](O)C[C@@]12C
- T/C [1]: 52 % of control and 59 % of control

Compound: COc1cc([C@@H]2c3cc4c(c(O)c3C[C@H]3COC(=O)[C@@H]32)OCO4)cc(OC)c1O
- T/C (dose: 3.13 mg/kg/injection, schedule: Q04DX003 (ip), vehicle: saline): 63 % of control
- T/C [2]: 53 % of control

Compound: C=CC(=O)N1CN(C(=O)C=C)CN(C(=O)C=C)C1
- T/C (dose: 3.13 mg/kg/injection, schedule: Q01DX003 (ip), vehicle: saline with Tween-80): 62 % of control
- T/C (dose: 6.25 mg/kg/injection, schedule: Q01DX003 (ip), vehicle: saline with Tween-80): 93 % of control

Compound: c1cc2n(n1)CCN2
- T/C [3]: 42 % of control
- T/C [4]: 50 % of control
- T/C [5]: 63 % of control
- T/C [6]: 41 % of control

Compound: CNC=O
- T/C [5]: 168 % of control
- T/C [6]: 78 % of control
- T/C (dose: 800.0 mg/kg/injection, schedule: Q04DX003 (ip), vehicle: saline): 104 % of control

Compound: O=c1[nH]cnc2n[nH]nc12
- T/C [7]: 67 % of control
- T/C [8]: 67 % of control
- T/C (dose: 400.0 mg/kg/injection, schedule: Q04DX003 (ip), vehicle: Klucel (hydroxypropylcellulose) (HPC)): 31 % of control

Compound: C[n+]1c(-c2cccc3ccccc23)c2cc(N)ccc2c2ccccc21
- T/C (dose: 1.5 mg/kg/injection, schedule: Q04DX003 (ip), vehicle: saline): 86 % of control

Compound: CNC(=O)ON(C(C)=O)C(=O)NC
- T/C [9]: 52 % of control
- T/C [3]: 59 % of control
- T/C [4]: 98 % of control

Compound: O=CC(S)CO (stereo not given)
- T/C [10]: 119 % of control
- T/C [11]: 96 % of control
- T/C [12]: 107 % of control

Compound: CN(C)N=Nc1cn[nH]c1C(N)=O
- T/C [1]: 69 % of control
- T/C [13]: 123 % of control
- T/C [7]: 79 % of control
- T/C [8]: 88 % of control

Compound: O=C(NC1CCCCC1)OCc1c(COC(=O)NC2CCCCC2)c(-c2ccc(Cl)c(Cl)c2)n2c1CCC2
- T/C [10]: 96 % of control
- T/C [11]: 90 % of control
- T/C [12]: 92 % of control
- T/C [14]: 65 % of control

Compound: O=c1n[n+]([O-])ccn1C1OC(CO)C(O)C1O (stereo not given)
- T/C [10]: 75 % of control
- T/C [11]: 71 % of control
- T/C [12]: 68 % of control
- T/C [14]: 82 % of control

Compound: CC(=O)OCC1OC(n2ccc(N)nc2=O)C(OC(C)=O)C1OC(C)=O (stereo not given)
- T/C [10]: 65 % of control and 89 % of control
- T/C [11]: 56 % of control

Compound: CC(=O)c1c(O)c(C)c(O)c2c1OC1=CC(=O)C(C(C)=O)C(=O)C12C (stereo not given)
- T/C (dose: 50.0 mg/kg/injection, schedule: Q01DX003 (ip), vehicle: sodium bicarbonate): 88 % of control
- T/C (dose: 100.0 mg/kg/injection, schedule: Q01DX003 (ip), vehicle: sodium bicarbonate): 97 % of control
- T/C (dose: 200.0 mg/kg/injection, schedule: Q01DX003 (ip), vehicle: sodium bicarbonate): 82 % of control

Compound: O=C/C(Cl)=C(/Cl)C(=O)O
- T/C (dose: 12.5 mg/kg/injection, schedule: Q04DX003 (ip), vehicle: saline with Tween-80): 86 % of control

Compound: OCC1OC(n2cnc3cncnc32)C(O)C1O (stereo not given)
- T/C [15]: 49 % of control
- T/C [9]: 48 % of control

Compound: N=C(N)SCc1c2ccccc2c(CSC(=N)N)c2ccccc12
- T/C (dose: 50.0 mg/kg/injection, schedule: Q04DX003 (ip), vehicle: suspension in saline): 88 % of control

Compound: Cc1c(N)nc(C(CC(N)=O)NCC(N)C(N)=O)nc1C(=O)NC(C(=O)NC(C)C(O)C(C)C(=O)NC(C(=O)NCCc1nc(-c2nc(C(=O)NCCCNC(C)c3ccccc3)cs2)cs1)C(C)O)C(OC1OC(CO)C(O)C(O)C1OC1OC(CO)C(O)C(OC(N)=O)C1O)c1cnc[nH]1 (stereo not given)
- T/C (dose: 3.75 mg/kg/injection, schedule: Q04DX003 (ip), vehicle: saline): 70 % of control

Compound: O=Cc1ccc(O)c(O)c1
- T/C (dose: 100.0 mg/kg/injection, schedule: Q04DX003 (ip), vehicle: saline with Tween-80): 94 % of control

Compound: COc1cccc2c1C(=O)c1c(O)c3c(c(O)c1C2=O)C[C@@](O)(C(=O)CO)C[C@@H]3OC1CC(N)CC(C)O1 (stereo not given in full)
- T/C (dose: 0.37 mg/kg/injection, schedule: Q04DX003 (ip), vehicle: water): 63 % of control
- T/C (dose: 0.75 mg/kg/injection, schedule: Q04DX003 (ip), vehicle: water): 54 % of control
- T/C (dose: 1.5 mg/kg/injection, schedule: Q04DX003 (ip), vehicle: water): 39 % of control

Compound: CCc1ccccc1N1CCN(C(=O)c2cc(OC)c(OC)c(OC)c2)CC1
- T/C [1]: 108 % of control
- T/C [13]: 63 % of control
- T/C [7]: 75 % of control
- T/C [8]: 82 % of control

Compound: CCN(CC)CCCC(C)Nc1c2ccc(Cl)cc2nc2ccc(OC)cc12 (stereo not given)
- T/C (dose: 50.0 mg/kg/injection, schedule: Q04DX003 (ip), vehicle: saline with Tween-80): 89 % of control
- T/C (dose: 200.0 mg/kg/injection, schedule: Q04DX003 (ip), vehicle: saline with Tween-80): 91 % of control

Compound: CN1N=C(N)c2cn(C3OC(COP(=O)(O)O)C(O)C3O)c3ncnc1c23 (stereo not given)
- T/C (dose: 50.0 mg/kg/injection, schedule: Q04DX003 (ip), vehicle: water): 121 % of control

Compound: COc1cccc2c1C(=O)c1c(O)c3c(c(O)c1C2=O)C[C@@](O)(/C(C)=N\O)C[C@@H]3OC1CC(N)C(O)C(C)O1 (stereo not given in full)
- T/C [2]: 68 % of control
- T/C [15]: 63 % of control
- T/C [9]: 56 % of control

Compound: C=C(C)[C@H]1Cc2c(ccc3c2O[C@@H]2COc4cc(OC)c(OC)cc4[C@@H]2C3=O)O1
- T/C (dose: 3.0 mg/kg/injection, schedule: Q04DX003 (ip), vehicle: suspension in saline): 90 % of control
- T/C (dose: 6.0 mg/kg/injection, schedule: Q04DX003 (ip), vehicle: suspension in saline): 77 % of control
- T/C (dose: 12.0 mg/kg/injection, schedule: Q04DX003 (ip), vehicle: suspension in saline): 91 % of control
- T/C [15]: 70 % of control
- T/C [9]: 102 % of control
- T/C [3]: 50 % of control

Compound: O=[N+]([O-])/C=C\c1ccc2c(c1)OCO2
- T/C [13]: 116 % of control
